Experimental data published in patent US6605115B1, “Method and composition for inhibiting cardiovascular cell proliferation” (Board of Trustees of the Leland Stanford Junior University, priority 1999, dated 2003).

What was measured:
cytokine-stimulated VSMC [1] = assay: Effect of arginine oligomers on NO production in cytokine-stimulated VSMC (NO2, Griess); format: cell-based, rat
Protocol: (§1) Rat VSMCs were prepared from the media layer of thoracic aorta of Sprague-Dawley rats by the explant method. The cells were cultured in Dulbecco's modified Eagle's medium (DMEM, Gibco BRL, Gaithersburg, Md.) containing 10% fetal calf serum, 100 U/ml penicillin and 100 μg/ml streptomycin at 37° C. under a humidified atmosphere containing 5% CO2. After subconfluent growth, cells were cultured with MEM Select Amine Kit (Gibco BRL, Gaithersburg, Md.) to be treated by specific concentrations of extracellular free L-arginine. Experiments were performed using cultured cells at passage levels of 5-10.
(§2) Extracellular NO production was measured as its stable oxidative metabolite, nitrite (NO2). At the end of each incubation, samples of the medium (80 μl) were collected, and NO2 measurement was performed using the Griess reaction facilitated by a commercial calorimetric assay (Cayman Chemical, Ann Arbor, Mich.). Values of NO2 production were corrected with relative cell count assessed by a cell proliferation kit II (XTT) (Boeheringer Mannheim, Germany).
Subconfluent cells were pre-incubated with medium containing 100 μM arginine for 24 hours. The cells were then transiently pretreated with each arginine polymer for 30 minutes. After translocation, the cells were incubated with a mixture of IFN-γ (100 U/ml) and LPS (100 μg/ml) in medium containing 100 μM L-arginine for another 24 hours. In some experiments, L-NMMA (1 mM), a nitric oxide synthase inhibitor, was added to the medium.

cytokine-stimulated VSMC [2] = assay: as above; format: cell-based, rat; details: exposure 5 minutes; observed for 24 hours; free L-arginine at 1 mM
[3] = test system: human umbilical vein endothelial cells (ECV304); assay: In vitro translocation of biotin-labeled peptides into endothelial cells; format: cell-based; details: VSMC and endothelial cells in culture
Protocol: Spontaneously transformed human umbilical vein endothelial cells (ECV304, ATCC) were cultured in medium M199 (Irvine Scientific) containing 10% fetal bovine serum (FBS), 100 IU/ml penicillin and 100 μg/ml of streptomycin (Gibco BRL). Confluent cells were washed and placed in serum-free medium. After 2 hours, the cells were incubated in presence of biotin labeled peptides, as bL-R7, or bD-R7, or bL-K7 (0.1, 1.0, and 10.0 μM). After 30 minutes of incubation, cells were washed 3 times with phosphate-buffered saline (PBS), fixed in ethanol/acetone; washed in PBS; incubated for 30 minutes with peroxidase suppressor (ImmunoPure, Pierce) to block endogenous peroxidase activity; and then incubated with 5 μg/ml of horse-radish peroxidase (HRP) conjugated strepavidin (Pierce) for 30 minutes. Substrate of HRP, diaminobenzidine (DAB, Sigma), was added to the cells. The reaction was terminated by washing in distilled water after a 60-second incubation. This experiment was repeated 3 times.

vein grafts = assay: Vein graft model: vessel morphometry 28 days after surgery; format: in vivo, New Zealand white rabbits
Protocol: Male New Zealand white rabbits (3.0-3.5 kg) fed standard diets were anesthetized with a mixture of ketamine (40 mg/kg) and xylazine (5 mg/kg) intramuscularly. The left external jugular vein was exposed through a longitudinal neck incision. The jugular vein was excised, gently flushed and immersed in PBS (control) or PBS containing either L-R7 (10.0 μM) or D-r7 (10.0 μM) for 30 minutes.
The right common carotid artery was exposed and clamped at the both proximal and distal ends. The treated vein segment was washed with PBS and then anastomosed in a reverse end-to-side fashion into the carotid artery, using continuous 8-0 polypropylene sutures. The common carotid artery was ligated and dissected between the two anastomoses, and the wound was closed with 3-0 nylon suture.
Vein graft segments were harvested on the 28th surgical day. Graft segments were fixed in 10% buffered formalin with gentle intraluminal pressure to maintain the physiological graft configuration. The middle portion of the paraffin samples were sectioned (5 μm) and stained with hematoxylin/eosin for light microscopic examination (FIGS. 8A-C). Three sections of each graft, taken at 0.5 mm intervals, were analyzed by planimetry by a observer blinded to the treatment group. The cross-sectional areas of the lumen, intima and media was digitized with the use of the Image Analyst program (Automatrix). The ratio of intima to media (I/M) area was calculated.

vein graft segments = assay: Ex vivo NOx production from vein graft harvested 3 days after surgery; format: in vivo, New Zealand white rabbits; details: vein grafts harvested after 3 days, absence of calcium ionophore
Protocol: Vein grafts were harvested 3 days after surgery, as described in Example 7. Vein graft segments were incubated in 1 me of Hanks' buffered saline solution (HBSS, Irvine Scientific) containing Ca^2+ (1.0 mM) and L-arginine (100 μM, Sigma) at 37° C. for 2 hours. NOx (nitrate and nitrite) production was measured either in the absence (basal) or presence (stimulated) of calcium ionophore (A23187, 10.0 μM, Sigma). Samples of the medium (80 μL) were collected, and NOx measurement was performed using the Griess reaction facilitated by a commercial calorimetric assay (Cayman Chemical).

Rat aortic VSMC = assay: VSMC proliferation assay (XTT); format: cell-based; details: 10.0 μM, 30 minutes, then growth medium 0.5% FBS for 48 hours; vs vehicle
Protocol: Rat aortic VSMC were grown to 50% confluence in 96-well cell culture plates. VSMC were then washed and incubated with serum free DMEM for 48 hours to obtain quiescent nondividing cells. Thereafter, VSMC were treated with vehicle, L-R7 (10.0 μM), or D-R7 (10.0 μM) for 30 minutes. After the treatment, cells were washed, and further incubated with serum containing DMEM (0.5%, FBS). Cells were harvested after 48 hours of incubation. Cell count was performed with commercial cell proliferation assay kit using spectrophotometer (XTT, Boehringer Mannheim). As a negative control, cells treated with vehicle and incubated with DSF were used. As an index of cell proliferation, the OD ratio of each treatment group to negative control group was calculated as an index of cell proliferation.

[4] = test system: coronary vessels of transplanted PVG rat donor hearts; assay: Heart transplant study (graft coronary artery disease, GCAD); format: in vivo; details: for % affected vessels / % luminal narrowing / I/M ratio: intracoronary 50 uM, 30 minutes
Protocol: In this study, PVG rat donor hearts (n=48) were transplanted heterotopically into the abdomen of ACI recipients. Donor hearts received either intracoronary PBS or intracoronary 50 uM (L)-arginine polymer (L-R5 or L-R9) for 30 minutes. (D-arginine polymers were not included in this study.) Each of these groups was further divided into 60 and 90 day study animals (n=6 each). Percent luminal narrowing, intima to media ratio (I/M), and percent affected vessels were determined as described in Example 11, below. Transfection efficiency was determined by infusing biotinylated R5 and R9, as in the preceding studies, and calculating the percentage of biotin positive nuclei divided by total number of nuclei.
PVG rat donor hearts (n=48) were transplanted heterotopically into the abdomen of ACI recipients. Donor hearts received either intracoronary PBS or intracoronary 50 uM (L)-arginine polymer (L-R5 or L-R9) for 30 minutes. Each group was further divided into 60 and 90 day study animals (n=6 each). Tissue cross sections (5μ) were stained with EVG (Elastica-van Gieson) preparation, and vessels were scored using computerized morphometry for analysis of % luminal narrowing, intima to media ratio (I/M), and % affected vessels. Transfection efficiency was determined by infusing biotinylated R5 and R9, as in preceding examples, and calculating the percentage of biotin positive nuclei divided by total number of nuclei. Results are described in Section IV C, above.

cell membrane = details: previously demonstrated; cited from earlier work
rat VSMC = assay: Stimulation of cells with interferon-γ and LPS: NO2 accumulation and dependence on extracellular L-arginine; format: cell-based; details: IFN-γ dose
Protocol: as §1, §2
Cells were plated at a density of 5×10^3 per well into 96-well plates. […] After 24 hours of incubation, the cells were then treated with a mixture of IFN-γ (100 U/ml) and LPS (100 μg/ml) in the medium containing the same dose of L-arginine for another 24 hours, and nitrite (NO2) accumulation in the culture medium was quantified.

Molecule: N=C(N)NCCC[C@H](N)C(=O)O [L-arginine, reference compound]
- elevation of NO production (cytokine-stimulated VSMC [1]; R7 10 μM pretreatment, free L-arginine up to 1 mM): not observed
- NO biosynthesis after 5 minutes exposure (cytokine-stimulated VSMC [2]): did not significantly increase NO biosynthesis

Molecule: hepta-D-arginine [D-r7]
- translocation across cytoplasmic and nuclear membranes [3]: very efficient at translocating across both cytoplasmic and nuclear membranes
- NO production (cytokine-stimulated VSMC [1]; 100 μM, 30 minutes): did not increase the NO production
- myointima formation (vein grafts): substantially less myointima formation
- intima/media ratio (I/M) (vein grafts; 10.0 μM): 0.8±0.2
- intimal area (vein grafts; 10.0 μM, 30 minutes immersion): 1.1±0.4 mm^2
- reduction of intimal area (vein grafts; 10.0 μM, vs control): about 35%
- Basal NOx production (vein graft segments): 48±8 nM/mg tissue/hr
- VSMC proliferation (Rat aortic VSMC): significantly inhibited

Molecule: penta-L-arginine [R5]
- NO production (cytokine-stimulated VSMC [1]; pretreatment 30 minutes, then IFN-γ and LPS, 100 μM extracellular L-arginine): no significant enhancement of NO production
- myointima formation (vein grafts): not effective in inhibiting myointima formation
- GCAD compared to PBS controls ([4]; 60 and 90 days): essentially no difference in GCAD
- % affected vessels ([4]; 60 days): 18.9 ± 7%
- % luminal narrowing ([4]; 60 days): 12.6 ± 6.7%
- I/M ratio ([4]; 60 days): .13 ± .07
- % affected vessels ([4]; 90 days): 18.5 ± 11.9%
- % luminal narrowing ([4]; 90 days): 14.2 ± 12%
- I/M ratio ([4]; 90 days): .16 ± .14
- transfection of coronary vessels ([4]; biotinylated oligomer infused): minimal transfection of coronary vessels
- translocation across the cell membrane (cell membrane): not to translocate across the cell membrane

B1: IFN-γ: Recombinant rat recombinant interferon-γ (protein, UniProt P01581 23-156, looked up)
Interferon gamma: QGTLIESLESLKNYFNSSSMDAMEGKSLLLDIWRNWQKDGNTKILESQIISFYLRLFEVLKDNQAISNNISVIESHLITNFFSNSKAKKDAFMSIAKFEVNNPQIQHKAVNELIRVIHQLSPESSLRKRKRSRC
- effect on NO biosynthesis (rat VSMC): dose-dependent
